Laboratory results reported in patent US20090208620A1, “Alimentary Compositions and Methods For Metabolic Modulation” (VDF FUTURECEUTICALS, INC., priority 2003, published 2009).
Values joined by “and” are separate entries in the source; they are usually repeats but may differ in a detail not shown here. Identical values can stand only once.

Tests used:
activated AMPK = test: Western immunoblot for activated (phospho-Thr172) AMPK in muscle cells; format: cell-based, mouse; settings: for FOLD AMPK ACTIVATION (OVER CONTROL): cells treated 30 minutes at 37° C
Procedure: (§1) The levels of Glut-4, activated AMPK and activated Akt were measured in mouse muscle cells C2C12 (from ATTC) and in primary culture of human skeletal muscle cells (Clonetics, Inc.) using Western immunoblotting. C2C12 cells were plated at 1.5×1-exp5 cells per mL/well (12-well plate) in standard cell culture medium (DMEM supplemented with 10% fetal bovine serum (FBS), 25 mM glucose, 20 mM Hepes, 4 mM glutamine and 2 mM sodium pyruvate. 48 hrs after the plating, medium was changed to differentiation medium (DMEM supplemented with 5 mM of glucose and 0.5% of FBS) for next 3-4 days to stimulate the formation of myotubes. Three hours before the treatment with selected agents, cells were washed with PBS and transferred to PBS supplemented with 5 mM of glucose.
(§2) Human skeletal muscle cells (HSKM) were cultured in SKBM-2 mediums provided by Clonetics. 48 hrs after cell plating, medium was changed to SKBM medium to stimulate differentiation of the cells to myotubes. When differentiated, the myotubes were transferred to PBS supplemented with 5 mM glucose for three hrs before the treatment.
(§3) Analysis of C2C12 cells for the level of activated AMPK, Akt and the level of GLUT-4 was performed in the same experimental system. The cells were treated for 30 minutes at 37° C. […] Subsequently, 20 μg per sample of sample protein was used for Western analysis using NuPage 10% Bis/Tris gels (Invitrogen). After exposure of membranes to primary and secondary antibodies AMPK, AKT or Glut-4 was detected using ECL-Plus (Amersham) following producer's instruction. Chemilumiscent signals were detected by using ChemiDoc system from Biorad. Intensity of detected signals were analyzed and measured using Quantity One software (Biorad). Alternatively, the level of phosphorylated AMPK was detected using ECL kit from Amersham and short exposure to Kodak films.
(§4) Experimental setup: Cell Culture was followed by treatment with selected contemplated compounds, which was followed by cell lysis and western blot analysis for AMPK, Akt, GLUT4, total AMPK, and total Akt. Signals were acquired accordingly.

[1] = system: rat epitrochlearis muscle; test: Glucose uptake in rat epitrochlearis muscle; format: cell-based; design: unit not given here; settings: 60 minute incubation at 37 C, 10 minute transport at 30 C
Procedure: Glucose uptake in rat epitrochlearis muscle was determined following a protocol substantially as described by Brozinick, J. T., and Birnbaum, M. J. (1998) J. Biol. Chem. 273(24), […]. Results are listed in Tables 5 and 6, wherein data of Table 5 were obtained for 60 minute incubations (at 37 C), 10 minute transport at (30 C) and data of Table 6 were obtained for 60 minute incubations (at 37 C), 10 minute transport at (30 C) of the compounds as indicated (K is kinetin, AG is N2-acetylguanine).

muscle cells = test: Total glucose uptake in vitro with fluorescent glucose analog; format: cell-based; settings: for AVERAGE (N = 3) fluorescence of fluorescent glucose in the cells / FOLD CHANGE IN TOTAL GLUCOSE UPTAKE (OVER CONTROL): 30 minutes at 37 C
Procedure: Total glucose uptake was measured using fluorescent glucose analog from Molecular Probes. Briefly, muscle cells were treated with kinetin, N^2-Acetyl-Guanosine and N^2-Acetyl-Guanine for 30 minutes at 37 C first and subsequently, these cells were exposed to 500 μM of fluorescent glucose analog for 5 minutes at room temperature. Next, cells were washed twice with cold Krebs-Hepes buffered solution and fixed in 70% ethanol in water. Fluorescence of fluorescent glucose in the cells was measured using fluorescent plate reader at 480/530 nm (excitation/emission). […] Table 4 refers to multiple independent experiments where multiple identical concentrations for the same reagents are indicated.

GLUT-4 = test: Western immunoblot for GLUT-4 protein level in C2C12 cells; format: cell-based, mouse
Procedure: as §1
Analysis of C2C12 cells for the level of activated AMPK, Akt and the level of GLUT-4 was performed in the same experimental system. The cells were treated for 30 minutes at 37° C. After the treatment, the cells were washed with ice-cold PBS and lysed with 80 μl of lysis buffer/well (M-PER buffer from Pierce supplemented with protease and phosphatase inhibitor mix (Calbiochem) for 10 minutes on ice. Next, the plates were transferred to −20° C. to improve the lysis of the cells. Next cells were sonicated for 5 minutes and lysate was transferred to Eppendorf tubes and centrifuged at 14,000 rpm for 10 minutes. Supernatants were collected in fresh Eppendorf tubes and kept on ice to measure the amount of total proteins. 3 μl of each lysate was used to measure the protein concentration using standard Bradford method (Biorad). Subsequently, 20 μg per sample of sample protein was used for Western analysis using NuPage 10% Bis/Tris gels (Invitrogen). After exposure of membranes to primary and secondary antibodies AMPK, AKT or Glut-4 was detected using ECL-Plus (Amersham) following producer's instruction. Chemilumiscent signals were detected by using ChemiDoc system from Biorad. Intensity of detected signals were analyzed and measured using Quantity One software (Biorad). Alternatively, the level of phosphorylated AMPK was detected using ECL kit from Amersham and short exposure to Kodak films.
Experimental setup: Cell Culture was followed by treatment with selected contemplated compounds, which was followed by cell lysis and western blot analysis for AMPK, Akt, GLUT4, total AMPK, and total Akt. Signals were acquired accordingly. Primary antibodies used in these studies are the following: Anti-phospho-AMPK (Thr172), mouse, rabbit IgG, from Cell Signaling, #2531; Anti-phospho-Akt (Ser473), mouse, rabbit IgG, Cell Signaling, #9271; Anti-Glut-4, mouse, rabbit IgG, Calbiochem, #400064; Anti-AMPK (total), mouse, rabbit IgG, Cell Signaling, #2532; Anti-Akt (total), mouse, rabbit IgG, Cell Signaling, #9272.
The effects of kinetin, N^2-Acetyl-Guanosine and N^2-Acetyl-Guanine on GLUT-4 protein level in C2C12 cells were investigated following the same experimental design as described for AMPK and AKT. Anti-Glut-4 antibody used in this study was from Calbiochem. […] Table 3 refers to multiple independent experiments where multiple identical concentrations for the same reagents are indicated.

activated Akt = test: Western immunoblot for activated (phospho-Ser473) Akt in muscle cells; format: cell-based, mouse; settings: for FOLD AKT ACTIVATION (OVER CONTROL): cells treated 30 minutes at 37° C
Procedure: as §1, §2, §3, §4

[2] = concentration 0.15 (unit not given)
[3] = concentration 0.3 (unit not given)
[4] = concentration 1.5 (unit not given)
[5] = concentration 3.75 (unit not given)
[6] = concentration 7.5 (unit not given)

CC(=O)Nc1nc2nc[nH]c2c(=O)[nH]1 [N^2-Acetyl-Guanine, N2-acetylguanine]
FOLD AMPK ACTIVATION (OVER CONTROL) (activated AMPK; 0.3 microM): 5.42 fold
FOLD AMPK ACTIVATION (OVER CONTROL) (activated AMPK; 1.5 microM): 5.85 fold
FOLD AMPK ACTIVATION (OVER CONTROL) (activated AMPK; 7.5 microM): 6.00 fold
FOLD AMPK ACTIVATION (OVER CONTROL) (activated AMPK; 37.5 microM): 6.51 fold
effect on AMPK activity (in words) (activated AMPK; no concentration stated): potent activators of AMPK
Glucose uptake, Mean ([1]; 0.1 uM): 1.12
Glucose uptake, Mean ([1]; 0.4 uM): 1.43
effect on glucose uptake in muscle cells in vitro (in words) (muscle cells): potently enhance glucose uptake in muscle cells in vitro
AVERAGE (N = 3) fluorescence of fluorescent glucose in the cells (muscle cells; [2]): 86.4 +/− 2.3
FOLD CHANGE IN TOTAL GLUCOSE UPTAKE (OVER CONTROL) (muscle cells; [2]): 1.85 fold
AVERAGE (N = 3) fluorescence of fluorescent glucose in the cells (muscle cells; [3]): 54.5 +/− 1.7
FOLD CHANGE IN TOTAL GLUCOSE UPTAKE (OVER CONTROL) (muscle cells; [3]): 2.68 fold
AVERAGE (N = 3) fluorescence of fluorescent glucose in the cells (muscle cells; [4]): 55.2 +/− 0.8
FOLD CHANGE IN TOTAL GLUCOSE UPTAKE (OVER CONTROL) (muscle cells; [4]): 2.71 fold
AVERAGE (N = 3) fluorescence of fluorescent glucose in the cells (muscle cells; [5]): 115.9 +/− 3.7
FOLD CHANGE IN TOTAL GLUCOSE UPTAKE (OVER CONTROL) (muscle cells; [5]): 2.48 fold
AVERAGE (N = 3) fluorescence of fluorescent glucose in the cells (muscle cells; [6]): 59.6 +/− 0.4
FOLD CHANGE IN TOTAL GLUCOSE UPTAKE (OVER CONTROL) (muscle cells; [6]): 2.93 fold
effect on GLUT-4 protein level (in words) (GLUT-4): potently increase GLUT-4 protein level
FOLD CHANGE IN GLUT-4 LEVEL (OVER CONTROL) (GLUT-4; 0.3 microM): 3.94 fold
FOLD CHANGE IN GLUT-4 LEVEL (OVER CONTROL) (GLUT-4; 1.5 microM): 3.84 fold
FOLD CHANGE IN GLUT-4 LEVEL (OVER CONTROL) (GLUT-4; 7.5 microM): 3.24 fold
FOLD CHANGE IN GLUT-4 LEVEL (OVER CONTROL) (GLUT-4; 37.5 microM): 2.80 fold
FOLD AKT ACTIVATION (OVER CONTROL) (activated Akt; 0.3 microM): 3.50 fold and 2.44 fold
FOLD AKT ACTIVATION (OVER CONTROL) (activated Akt; 7.5 microM): 2.58 fold and 1.95 fold
effect on Akt activity (in words) (activated Akt; no concentration stated): potent activators of AMPK as well as Akt
